Assay results published in ChEMBL document CHEMBL1201862, “PubChem BioAssay data set” (2004).
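Growth conditions: 96-well plates. Treatment: test compound, 48 hours, 5 concentrations. Analysis: linear interpolation between bracketing concentrations; unreached endpoints set to highest concentration. GI50: concentration for 50% inhibition of growth.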 The source made the active and inactive calls. No stated cut-off is given here; in the data, active = GI50 up to about 1.1 µM and inactive = higher.

How the values were obtained:
Test in all cases: DTP human tumour cell line panel, 48 h
[1] = test system: 786-0
[2] = test system: CAKI-1
[3] = test system: COLO 205
[4] = test system: HL-60
[5] = test system: Hs-578T
[6] = test system: K562
[7] = test system: LOX IMVI
[8] = test system: MOLT-4
[9] = test system: NCI-H23
[10] = test system: NCI-H522
[11] = test system: NCI/ADR-RES
[12] = test system: OVCAR-4
[13] = test system: OVCAR-5
[14] = test system: SF-268
[15] = test system: SNB-19
[16] = test system: SNB-75
[17] = test system: T47D
[18] = test system: TK-10
[19] = test system: SR
[20] = test system: HOP-92

Measured: GI50

CC(=O)O[C@H]1C(=O)[C@@]2(C)C([C@H](OC(=O)c3ccccc3)[C@]3(O)C[C@H](OC(=O)[C@H](O)[C@@H](NC(=O)c4ccc(Cl)cc4)c4ccccc4)C(C)=C1C3(C)C)C1(OC(C)=O)CO[C@@H]1C[C@@H]2O (some centres not stated)
inactive: [2] 3.06 µM | [6] > 25 µM | [8] 21.3 µM | [11] 14.9 µM | [12] 7.21 µM
active: [1] 0.123 µM | [3] 0.0607 µM | [4] 0.0025 µM | [5] 0.0188 µM | [7] < 0.01 µM | [9] 0.0738 µM | [10] 0.0775 µM | [13] 0.104 µM | [14] 0.156 µM | [15] 0.137 µM | [16] 0.021 µM | [17] 0.82 µM | [18] 0.661 µM

Cn1c2ccccc2c(=O)c2cccc(C(=O)NC(CCC(N)=O)C(=O)O)c21 (configuration not stated)
inactive: [1] > 100 µM | [2] > 100 µM | [3] > 100 µM | [5] > 100 µM | [6] > 100 µM | [7] > 100 µM | [8] > 100 µM | [9] > 100 µM | [11] 60.3 µM | [12] > 100 µM | [13] > 100 µM | [14] > 100 µM | [15] > 100 µM | [16] > 100 µM | [19] 62.1 µM | [17] > 100 µM | [18] > 100 µM
active: [4] 0.0585 µM

CN1C2CCC1CC(=CCOC(c1ccc(F)cc1)c1ccc(F)cc1)C2
inactive: [1] 14 µM | [2] 16.4 µM | [3] 11 µM | [4] 13.6 µM | [5] 11.9 µM | [6] 5.94 µM | [7] 16.8 µM | [8] 15 µM | [9] 17.7 µM | [10] 11.6 µM | [11] 23.3 µM | [12] 16.2 µM | [13] 17.4 µM | [14] 12.9 µM | [15] 21.2 µM | [16] 13.8 µM | [19] 15.8 µM | [17] 17.6 µM | [18] 14.9 µM

C[C@@H]1C(=O)CC2(O)[C@@]13C[C@@H](OC(=O)[C@@H]3O)[C@@H](C)[C@@]21COC1=O (some centres not stated)
inactive: [1] > 100 µM | [3] > 100 µM | [4] > 100 µM | [5] > 100 µM | [6] > 100 µM | [7] > 100 µM | [8] > 100 µM | [9] > 100 µM | [10] > 100 µM | [11] > 100 µM | [12] > 100 µM | [13] > 100 µM | [14] > 100 µM | [15] > 100 µM | [16] > 100 µM | [19] > 100 µM | [17] > 100 µM | [18] > 100 µM

O=C1C=Cc2c1csc2Br
inactive: [1] 25.8 µM | [2] > 100 µM | [3] 64.7 µM | [5] 41.2 µM | [6] 26.5 µM | [7] 25.5 µM | [8] 21.3 µM | [9] 33 µM | [10] 18.7 µM | [11] 33.8 µM | [12] 70.8 µM | [13] > 100 µM | [14] 86.9 µM | [15] 70.3 µM | [16] > 100 µM | [19] 10.6 µM | [17] 54.5 µM | [18] 65 µM

CC1(C)O[C@@H]([C@@H](O)[C@H](O)C2SCCCS2)[C@@H](CO)O1
inactive: [1] > 100 µM | [2] > 100 µM | [3] > 100 µM | [4] > 100 µM | [20] > 100 µM | [5] > 100 µM | [6] > 100 µM | [7] > 100 µM | [8] > 100 µM | [9] > 100 µM | [10] > 100 µM | [11] > 100 µM | [13] > 100 µM | [14] > 100 µM | [15] > 100 µM | [16] > 100 µM | [17] > 100 µM | [18] > 100 µM

CC(c1ccccc1)n1cncc1C(=O)NN1CCN(C)CC1 (configuration not stated)
inactive: [1] > 10 µM | [2] > 10 µM | [3] > 10 µM | [4] > 10 µM | [5] > 10 µM | [6] > 10 µM | [7] > 10 µM | [8] > 10 µM | [9] > 10 µM | [10] > 10 µM | [11] > 10 µM | [12] > 10 µM | [13] > 10 µM | [14] > 10 µM | [15] > 10 µM | [19] > 10 µM | [17] > 10 µM | [18] > 10 µM

CCc1ccccc1NC(=O)C(=O)CC(=O)c1sc(Nc2ccccc2Cl)nc1C
inactive: [1] 27.7 µM | [2] 46.1 µM | [3] 22.2 µM | [4] 47 µM | [5] 46.5 µM | [6] 29.4 µM | [7] 19.7 µM | [8] 14.9 µM | [9] 30.3 µM | [10] 18.1 µM | [11] 25.8 µM | [12] 36.8 µM | [13] > 100 µM | [14] 66.4 µM | [15] 39.1 µM | [17] 35.7 µM | [18] 59.6 µM

Oc1ccc2cc(Br)ccc2c1-c1c(O)ccc2ccc(Br)cc12
inactive: [1] 13.8 µM | [2] 18.8 µM | [3] 13.6 µM | [4] 5.42 µM | [5] 11.9 µM | [6] 18.5 µM | [8] 4.85 µM | [9] 14.4 µM | [10] 15.2 µM | [11] 13.6 µM | [13] 16.9 µM | [14] 20 µM | [15] 15.4 µM | [16] 4.73 µM | [19] 14.3 µM | [17] 12.7 µM | [18] 16.7 µM

CC(=O)CCC(=O)CC(O)(C(F)(F)F)C(F)(F)F
inactive: [1] 16.2 µM | [3] 17.9 µM | [4] 18.5 µM | [20] 13.6 µM | [5] 14.6 µM | [6] 15.3 µM | [8] 17.9 µM | [9] 21.2 µM | [11] 25.3 µM | [12] 19.7 µM | [13] 12.9 µM | [14] 22.3 µM | [15] 15.9 µM | [16] 27.5 µM | [19] 16.4 µM | [17] 11.4 µM | [18] 22.6 µM

O=C(NCCCN(CCCCN(CCCNC(=O)C(F)(F)F)Cc1ccccc1)Cc1ccccc1)C(F)(F)F
inactive: [1] 12.6 µM | [2] 13.6 µM | [3] 10.7 µM | [4] 12.9 µM | [20] 10.5 µM | [5] 16.6 µM | [6] 13.7 µM | [7] 8.43 µM | [8] 14.7 µM | [9] 15.5 µM | [10] 9.51 µM | [11] 14.7 µM | [12] 16.8 µM | [13] 19.9 µM | [14] 12.5 µM | [15] 13.7 µM | [16] 12.6 µM | [17] 17.7 µM | [18] 23.3 µM
